Measurements from US20230390401A1, “RAPIDLY RELEASED BIOORTHOGONAL CAGING GROUPS” (University of Utah Research Foundation, priority 2018, published 2023).
Read-outs that look alike come from different tables or passages of the source.

Experiments:
[1] = Kinetics of Tz-induced release from ICPr/ICPrc groups in PBS:DMSO; conditions: for k1,elim, release of fluorophore from 3-oxopropyl intermediate: in PBS, after reaction with PEG-DPTz; for bimolecular rate constant k2: PEG-DPTz c=0.2 mM, excess probe c=2 mM, T=37° C., PBS:DMSO (9:1), pseudo-first order fit
Description: (§1) Fitting the disappearance of PEG-DPTz (c=0.2 mM) absorbance in the presence of excess ICPr-O-NA or ICPrc-NH-NA (c=2 mM;T=37° C., PBS:DMSO (9:1)) to a pseudo-first order rate equation provided the bimolecular rate constants k2(ICPr-O-NA)=4.0±0.2 M^−1s^−1 and k2(ICPrc-NH-NA)=1.1±0.2 M^−1s^−1, respectively. Release of the fluorophores in PBS from the postulated 3-oxopropyl intermediate was delayed relative to the reaction of the ICPr/ICPrc-groups with PEG-DPTz (k1,elim(HO-NA)=1.6×10^−4 s^−1; k1,elim(H2N-NA)=5.00×10^−5 s^−1; FIG. 4B, right column) in agreement with studies of cargo release from such groups. The aldehyde intermediate was detectable by NMR in DMSO-d6:D2O (9:1). To our delight, fluorophore release in diluted human serum (T=37° C., PBS:serum (1:1)) reached completion in few minutes because serum albumin can catalyze the β-elimination reaction.

[2] = Fluorophore release (β-elimination) in diluted human serum; conditions: T=37° C., PBS:serum (1:1)
Description: as §1

[3] = Stability in serum in the absence of Tz; assay type: in vitro ADME, human
zebrafish embryos [4] = assay: In vivo uncaging of resorufin fluorescence in zebrafish embryos implanted with Tz-PS beads; conditions: c=10 μM, t=8 h, Tz-PS implanted into yolk sacs
A549 lung cancer cells = assay: Cytotoxicity assay (CellTiter-Glo 2.0 viability)
Description: A549 lung cancer cells (ATCC, USA) were maintained in a humidified CO2 (5%) incubator at 37° C. in RPMI (Thermo Fisher, USA) supplemented with 10% fetal bovine serum in the presence of 1% Penicillin-Streptomycin-Glutamine (Thermo Fisher, USA) and 0.2% Normocin (InvivoGen, USA).
The cells were plated in 96-well TC treated plates (PerkinElmer, USA) at a 6,000 cells/well density 24 h prior to the addition of the drugs. All drugs, prodrugs and PEG-DPTz in DMSO stock solution were serially diluted in pre-warmed culture medium at 37° C. For samples assessing the reaction-induced drug release, prodrugs were added to the cells first (100 μL final volume per well) in a series of final concentrations ranging from 0.005 to 10 μM followed by addition of PEG-DPTz (20, 40 and 80 μM).
After 72 h incubation at 37° C., cell proliferation was assessed by a CellTiter-Glo©2.0 viability assay according to the manufacturer's instructions. After 15 min incubation at 25° C., the medium was gently measured with Envision 2104 Multilabel Reader (PerkinElmer, USA) to get the luminescent based on quantitation of the ATP present, an indicator of metabolically active cells. The proliferation assay was performed in quadruplet measurements (n=4). EC50 values were derived from the normalized cell growth and Growth/Sigmoidal formula were fitted and generated with Origin 8.0. […] The results are expressed as the mean±standard deviation (n=4).

zebrafish embryos [5] = conditions: medium c=0, 1, 10 μM, t=8 h
Description: Zebrafish embryos were used as a model organism to evaluate the activity of uncaged payload molecules in vivo. […] For the fluorescence study, Tz-PSs were implanted into the yolk sacs of zebrafish embryos followed by incubation with ICPr-rsf (c=10 μM). […] Mexiletine is a voltage-gated sodium channel blocker known to induce cardiac arrhythmia, and which has been reported to decrease heart rate.
UV-VIS photospectrometic kinetic measurements were performed on a microplate reader SpectramaX M5 (Molecular Device, USA) in 96-well plates or 1 mL quartz cuvette. Cell proliferation assays were performed on an Envision 2104 Multilabel Reader (PerkinElmer, USA). Zebrafish Imaging and Efficiency Test (Heart Rate Reduction) were performed with Zeiss SteREO Discovery.V8 microscope (Zeiss, Jena, Germany) fitted with a PentaFluor S 120 vertical illuminator and coupled with an Xcite Series 120PC light source.

[6] = read-out: EC50 cytotoxicity, prodrug combined with PEG-DPTz, A549 cells, prodrug + excess PEG-DPTz (c=80 μM), 72 h

Compound: COCCOCCOCCOCCN1C(=O)c2cccc3c(O)ccc(c23)C1=O [HO-NA, N-(methyl-PEG4)-4-hydroxy-1,8-naphthalimide]
- k1,elim, release of fluorophore from 3-oxopropyl intermediate [1]: 0.00016 s⁻¹

Compound: [C-]#[N+]CCCOc1ccc2c3c(cccc13)C(=O)N(CCOCCOCCOCCOC)C2=O [ICPr-O-NA, N-(methyl-PEG4)-4-(3-isocyanopropyl-1-oxy)-1,8-naphthalimide]
- apparent first-order rate constant k1,elim in serum [2]: 0.0042 s⁻¹
- stability in serum [3]: completely stable in serum for at least three days
- bimolecular rate constant k2 [1]: 4.0 ± 0.2 M⁻¹ s⁻¹

Compound: [C-]#[N+]CCCOc1ccc2nc3ccc(=O)cc-3oc2c1 [ICPr-rsf, 3-isocyanopropyl resorufin ether]
- fluorescence staining, fish with Tz-PS versus controls with unmodified beads (zebrafish embryos [4]): 5.2 fold

Compound: [C-]#[N+]CCCOC(=O)Nc1ccc2c3c(cccc13)C(=O)N(CCOCCOCCOCCOC)C2=O [ICPrc-NH-NA]
- apparent first-order rate constant k1,elim in serum [2]: 0.0016 s⁻¹
- bimolecular rate constant k2 [1]: 1.1 ± 0.2 M⁻¹ s⁻¹

Compound: [C-]#[N+]CCCOC(=O)NC1CC(OC2CC(O)(C(=O)CO)Cc3c(O)c4c(c(O)c32)C(=O)c2c(OC)cccc2C4=O)OC(C)C1O (centres unmarked) [ICPrc-dox, N-(3-isocyanopropyl-1-carbamoyl)doxorubicin]
- EC50 (A549 lung cancer cells; [6]): 165 ± 35 nM

Compound: [C-]#[N+]CCCOC(=O)NC(C)COc1c(C)cccc1C (centres unmarked) [ICPrc-mex, N-(3-isocyanopropyl-1-carbamoyl)mexiletine]
- heart rate in control fish bearing unmodified beads (zebrafish embryos [5]): no changes were observed
- heart rate in fish with implanted Tz-PS (zebrafish embryos [5]; normalized to heart rate at t=0 h): dose-dependent decrease in heart rate

Compound: [C-]#[N+]CCCOC(=O)N1C2CN3C4=C(C(=O)C(N)=C(C)C4=O)C(COC(N)=O)C3(OC)C21 (centres unmarked) [ICPrc-mmC, N-(3-isocyanopropyl-1-carbamoyl)Mitomycin C]
- EC50 (A549 lung cancer cells; [6]): 244 ± 17 nM

Compound: COCCOCCOCCOCCN1C(=O)c2cccc3c(N)ccc(c23)C1=O [Structure H2N-NA, N-(methyl-PEG4)-4-amino-1,8-naphthalimide]
- k1,elim, release of fluorophore from 3-oxopropyl intermediate [1]: 5e-05 s⁻¹

Compound: COc1cccc2c1C(=O)c1c(O)c3c(c(O)c1C2=O)C[C@@](O)(C(=O)CO)C[C@@H]3O[C@H]1C[C@H](N)[C@H](O)[C@H](C)O1 [dox, doxorubicin, reference compound]
- EC50 (A549 lung cancer cells; Homo sapiens, A549, 72 h, read-out: EC50 cytotoxicity, free drug): 144 ± 28 nM

Compound: N-(methyl-PEG4)-4-(3-isocyanopropyl-carbamoyl)amino-1,8-naphthalimide [ICPrc-NH-NA]
- stability in serum [3]: completely stable in serum for at least three days
